Like-named read-outs stand apart in the source and are kept apart here.
Columns and labels:
[1] = system: human colonic (CACO-2) epithelial cell layer; details: cited from earlier work
[2] = system: claudin-1; details: cited from earlier work
[3] = system: human colonic (CACO-2) epithelial cell layer; details: cited from earlier work; remark: listed apart in the source
[4] = system: TJ; details: glutamine; Seth et al. 2004; cited from earlier work
[5] = system: Claudin-5; test: Claudin-5 expression in LLC-PK1 cell layers (Western immunoblot); type: cell-based, porcine; details: for Claudin-5: LLC-PK1 cell layers, given as Incr (increase); for expression of Claudin 5: LLC-PK1 cells
Source text: (§1) Zinc has long been known to be efficacious in the treatment of certain types of diarrhea. It has been determined that zinc can render certain TJ barriers less leaky. Zinc effects can vary depending upon the specific type of epithelial layer.

[6] = system: colonic (CACO-2) epithelial cell layers; details: quercetin treatment; Suzuki et al. 2009; cited from earlier work
[7] = system: claudin 3; details: quercetin 0.2 mM; CACO-2; Amasheh et al. 2008; cited from earlier work
[8] = system: Claudin-3; test: Claudin-3 expression in LLC-PK1 cell layers (Western immunoblot); type: cell-based, porcine; details: for Claudin-3: LLC-PK1 cell layers, given as Decr (decrease)
Source text: as §1

[9] = system: claudin 7; details: quercetin 0.2 mM; CACO-2; Amasheh et al. 2008; cited from earlier work
[10] = system: occludin; details: cited from earlier work
[11] = system: Claudin-7; test: Claudin-7 expression in LLC-PK1 cell layers; type: cell-based, porcine
[12] = system: Tricellulin; test: Tricellulin expression in LLC-PK1 cell layers (Western immunoblot); type: cell-based, porcine; details: for Tricellulin: LLC-PK1 cell layers, given as Decr (decrease)
Source text: as §1

[13] = system: ZO-2; details: quercetin; independent study, Suzuki et al. 2009; cited from earlier work
[14] = system: Claudin-4; test: Claudin-4 expression in LLC-PK1 cell layers (Western immunoblot); type: cell-based, porcine; details: for Claudin-4: LLC-PK1 cell layers, given as Incr (increase)
Source text: as §1

[15] = system: claudin-4; details: cited from earlier work
[16] = system: LLC-PK1 cell layers; test: Transepithelial electrical resistance (Rt) across LLC-PK1 cell layers; type: cell-based, porcine; details: for transepithelial resistance: LLC-PK1 cell layers
Description: (§2) LLC-PK1 is a porcine cell line model of the kidney proximal tubule.
The effect of zinc and/or quercetin on the electrical resistance across LLC-PK1 renal epithelial cell layers was tested. Briefly, LLC-PK1 renal epithelial cell layers were treated with either 100 μM zinc alone, 400 μM quercetin alone; or both agents together. The stimulation of transepithelial electrical resistance (Rt) by maximally effective concentrations of zinc alone and quercetin alone was in the range of 50-60% of control levels. […] The results shown in FIG. 8 represent the mean+/− standard error for 12 cell layers. P values are for one-sided Student's t tests.

[17] = system: Claudin-2; test: Claudin-2 expression in LLC-PK1 cell layers (Western immunoblot); type: cell-based, porcine; details: for Claudin-2: LLC-PK1 cell layers, given as Decr (decrease)
Source text: as §1

[18] = system: LLC-PK1 cell layers; test: Mannitol flux / leak across LLC-PK1 cell layers; type: cell-based, porcine; details: for Mannitol Flux / mannitol leaking across the cell layer: LLC-PK1 cell layers; for Mannitol Flux: given as Decr (decrease)
Description: FIG. 7A provides a graph of transepithelial resistance of untreated (control) LLC-PK1 cell layers or LLC-PK1 cell layers treated with 50 μM, 100 μM, or 200 μM zinc. FIG. 7B provides a graph of ^14C-D-mannitol leak across untreated (control) LLC-PK1 cell layers or LLC-PK1 cell layers treated with 50 μM, 100 μM, or 200 μM zinc.
as §2

[19] = system: claudin-2; details: indole 1 mM; HCT-8 cell layers; Bansal et al. 2010; cited from earlier work
[20] = system: Claudin-1; test: Claudin-1 expression in LLC-PK1 cell layers (Western immunoblot); type: cell-based, porcine
Source text: as §1

[21] = system: Occludin; test: Occludin expression in LLC-PK1 cell layers (Western immunoblot); type: cell-based, porcine
Source text: as §1

[22] = system: human colonic (HCT-8) epithelial cell layers; details: indole 1 mM; HCT-8 cell layers; Bansal et al. 2010; cited from earlier work
[23] = system: claudin-1; test: Claudin 1 amount / localization in colonic (CACO-2) epithelial cell layers; type: cell-based, human; details: 50 or 100 micromolar zinc; CACO-2 cell layer
Source text: (§3) When the effects of 50 or 100 micromolar zinc were examined on the TJ permeability of a human colonic (CACO-2) epithelial cell layer, the results were quite different. Here the Rt increased as with the renal epithelium. However, there was an increase—as opposed to a decrease—in a D-mannitol diffusion. In other words, zinc decreased leak to salts but increased leak to small nonelectrolytes. […] Even though the overall cellular content of the tight junction protein(s) may not be affected, zinc may cause a ‘shift’ in certain tight junction protein (e.g., certain claudins) out of the tight junctional complex and into the cell's cytoplasm.

[24] = system: occludin; details: zinc supplementation; small intestine; Zhang et al. 2009; cited from earlier work
[25] = system: human colonic (CACO-2) epithelial cell layer; test: Transepithelial electrical resistance (Rt) across CACO-2 cell layers; type: cell-based; details: 50 or 100 micromolar zinc; CACO-2 cell layer
Source text: as §3

[26] = system: claudin-4; test: Claudin 4 amount in colonic (CACO-2) epithelial cell layers; type: cell-based, human; details: 50 or 100 micromolar zinc; CACO-2 cell layer
Source text: as §3

[27] = system: occludin; test: Occludin amount / localization in colonic (CACO-2) epithelial cell layers; type: cell-based, human; details: 50 or 100 micromolar zinc; CACO-2 cell layer
Source text: as §3

[28] = system: tricellulin; test: Tricellulin amount in CACO-2 cell layers; type: cell-based, human; details: 50 or 100 micromolar zinc; CACO-2 cell layer
Source text: as §3

[29] = system: claudin 7; test: Claudin 7 amount in colonic (CACO-2) epithelial cell layers; type: cell-based, human; details: 50 or 100 micromolar zinc; CACO-2 cell layer
Source text: as §3

[30] = system: ZO-1; details: zinc supplementation; small intestine; Zhang et al. 2009; cited from earlier work
[31] = system: small intestine; details: zinc supplementation, Zhang et al. 2009; cited from earlier work
[32] = system: claudin 2; test: Claudin 2 amount in colonic (CACO-2) epithelial cell layers; type: cell-based, human; details: 50 or 100 micromolar zinc; CACO-2 cell layer
Source text: as §3

[33] = system: ZO-1; details: zinc; colonic (CACO-2) epithelia; Finamore et al. 2008; cited from earlier work
[34] = system: human colonic (CACO-2) epithelial cell layer; test: D-mannitol diffusion across CACO-2 cell layers; type: cell-based; details: 50 or 100 micromolar zinc; CACO-2 cell layer
Source text: as §3

[35] = system: claudin 3; test: Claudin 3 amount in colonic (CACO-2) epithelial cell layers; type: cell-based, human; details: 50 or 100 micromolar zinc; CACO-2 cell layer
Source text: as §3

[36] = system: claudin 5; test: Claudin 5 amount in colonic (CACO-2) epithelial cell layers; type: cell-based, human; details: 50 or 100 micromolar zinc; CACO-2 cell layer
Source text: as §3

[37] = system: epithelial TJs; details: arginine; Rhoads et al. 2009; cited from earlier work
[38] = glutamine, CACO-2 epithelial cell layers, Li et al. 2009
[39] = quercetin 0.2 mM, CACO-2, Amasheh et al. 2008
[40] = quercetin, independent study, Suzuki et al. 2009
[41] = zinc at 50 and 100 micromolar, LLC-PK1 epithelium
[42] = zinc, LLC-PK1 renal epithelial model

NC(=O)CC[C@H](N)C(=O)O [glutamine]
Rt [1, 38]: increased | claudin-1 expression [2, 38]: increasing | mannitol diffusion [3, 38]: decreased | toxicity-related increases in TJ leakiness [4]: reverse

O=c1c(O)c(-c2ccc(O)c(O)c2)oc2cc(O)cc(O)c12 [quercetin]
TJ permeability to Na+ and Cl− ions [1, 39]: decreased | Rt ([1]; quercetin 0.2 mM, colonic (CACO-2) epithelial cell layers, Amasheh et al. 2008): increased | Claudin-5 ([5]; 400 μM Quercetin): Incr 100% | expression of Claudin 5 ([5]; 400 μM quercetin, FIG. 3B): upregulated | permeability of the electrically charged dye Lucifer yellow [6]: decreased | amount of claudin 3 [7]: unaffected | amount of claudin 1 [2, 39]: unaffected | cellular redistribution of claudin-1 [2, 40]: cellular redistribution | Claudin-3 ([8]; 400 μM Quercetin): Decr 30% | amount of claudin 7 [9]: unaffected | amount of occludin [10, 39]: unaffected | cellular redistribution of occludin [10, 40]: cellular redistribution | Claudin-7 ([11]; 400 μM Quercetin, LLC-PK1 cell layers, given as Incr (increase)): Incr 200% | Tricellulin ([12]; 400 μM Quercetin): Decr 15% | cellular redistribution of ZO-2 [13]: cellular redistribution | TJ permeability to the nonelectrolyte D-mannitol [3, 39]: no significant effect | Claudin-4 ([14]; 400 μM Quercetin): Incr 75% | TJ content of claudin-4 [15, 39]: dramatic increase | increase in claudin-4 [15, 40]: confirmed | transepithelial resistance ([16]; 400 μM Quercetin, given as Incr (increase)): Incr > 20% | transepithelial resistance ([16]; quercetin (100, 200, 400 μM, FIG. 4A)): increased | Claudin-2 ([17]; 400 μM Quercetin): Decr 75% | expression of Claudin 2 ([17]; 400 μM quercetin, LLC-PK1 cells, FIG. 3A): downregulated | Mannitol Flux ([18]; 400 μM Quercetin): Decr > 20% | mannitol leaking across the cell layer ([18]; quercetin (100, 200, 400 μM, FIG. 4B)): decrease

c1ccc2[nH]ccc2c1 [indole]
Claudin-5 ([5]; 1 mM Indole): Incr 150% | expression of Claudin 5 ([5]; indole (1 mM, FIG. 5B)): upregulated | Claudin-3 ([8]; 1 mM Indole): Decr 20% | effect on claudin 3 ([8]; indole, LLC-PK1 cells): less than 50% | abundance of claudin-2 [19]: decreased | effect on claudin 7 ([11]; indole, LLC-PK1 cells): less than 50% | Tricellulin ([12]; 1 mM Indole): Decr 10% | effect on tricellulin ([12]; indole, LLC-PK1 cells): less than 50% | Claudin-1 ([20]; 1 mM Indole, LLC-PK1 cell layers, given as Decr (decrease)): Decr 30% | effect on claudin 1 ([20]; indole, LLC-PK1 cells): less than 50% | effect on occludin ([21]; indole, LLC-PK1 cells): less than 50% | Claudin-4 ([14]; 1 mM Indole): Incr 100% | expression of Claudin 4 ([14]; indole (1 mM, FIG. 5A), LLC-PK1 cells): upregulated | Rt [22]: increased | transepithelial resistance ([16]; 1 mM Indole, given as Incr (increase)): Incr 30% | transepithelial resistance ([16]; indole (0.1, 1, 2 mM, FIG. 6)): increased | Claudin-2 ([17]; 1 mM Indole): Decr 40% | effect on claudin 2 ([17]; indole, LLC-PK1 cells): less than 50%

[Zn] [zinc]
claudin 1 amount [23]: no changes | claudin 5 expression by Western immunoblot [5, 41]: none had exhibited increased or decreased expression | levels of occludin [24]: increased | Rt [25]: increased | claudin 4 amount [26]: no changes | occludin amount [27]: no changes | tricellulin amount [28]: no changes | claudin 7 amount [29]: significant decreases | claudin 3 expression by Western immunoblot [8, 41]: none had exhibited increased or decreased expression | levels of ZO-1 [30]: increased | localization of occludin ([10]; zinc, colonic (CACO-2) epithelia, Finamore et al. 2008): regulate the localization | tricellulin expression by Western immunoblot [12, 41]: none had exhibited increased or decreased expression | claudin 1 expression by Western immunoblot [20, 41]: none had exhibited increased or decreased expression | leakage of the small non-electrolyte lactulose [31]: decreasing | occludin expression by Western immunoblot [21, 41]: none had exhibited increased or decreased expression | claudin 4 expression by Western immunoblot [14, 41]: none had exhibited increased or decreased expression | shift of claudin 4 out of the tight junctional complex into the cytoplasm [14, 42]: has been observed | claudin 2 amount [32]: significant decreases | localization of ZO-1 [33]: regulate the localization | D-mannitol diffusion [34]: increase | claudin 3 amount [35]: no changes | transepithelial resistance ([16]; 100 μM Zn, given as Incr (increase)): Incr > 40% | transepithelial resistance ([16]; zinc (50, 100, 200 μM, FIG. 7A)): increased | transepithelial electrical resistance (Rt) ([16]; zinc at 50 and 100 micromolar, renal proximal tubular-like (LLC-PK1) epithelium): increased | claudin 2 expression by Western immunoblot [17, 41]: none had exhibited increased or decreased expression | shift of claudin 2 out of the tight junctional complex into the cytoplasm [17, 42]: has been observed | claudin 5 amount [36]: no changes | Mannitol Flux ([18]; 100 μM Zn): Decr > 20% | mannitol leaking across the cell layer ([18]; zinc (50, 100, 200 μM, FIG. 7B)): decrease | transepithelial diffusion of D-mannitol [18, 41]: decreased

N=C(N)NCCC[C@H](N)C(=O)O [arginine]
barrier-enhancing effects (compared with glutamine) [37]: very similar barrier-enhancing effects

Source: patent publication US20150140121A1, “Compositions and Methods for Tight Junction Modulation” (Lankenau Institute for Medical Research, priority 2012, published 2015)
